The values that follow come from US11236106B2, “Cycloalkane-1,3-diamine derivative” (Daiichi Sankyo Company, Limited, priority 2018, dated 2022).

Where a name gives a salt, the structure may show the parent alone.

For the first assay, the target named is T1, menin and MLL (menin, Flag tagged; biotinylated MLL1 peptide 1-46aa) (Homo sapiens, UniProt O00255).
T1 sequence (O00255 1-610): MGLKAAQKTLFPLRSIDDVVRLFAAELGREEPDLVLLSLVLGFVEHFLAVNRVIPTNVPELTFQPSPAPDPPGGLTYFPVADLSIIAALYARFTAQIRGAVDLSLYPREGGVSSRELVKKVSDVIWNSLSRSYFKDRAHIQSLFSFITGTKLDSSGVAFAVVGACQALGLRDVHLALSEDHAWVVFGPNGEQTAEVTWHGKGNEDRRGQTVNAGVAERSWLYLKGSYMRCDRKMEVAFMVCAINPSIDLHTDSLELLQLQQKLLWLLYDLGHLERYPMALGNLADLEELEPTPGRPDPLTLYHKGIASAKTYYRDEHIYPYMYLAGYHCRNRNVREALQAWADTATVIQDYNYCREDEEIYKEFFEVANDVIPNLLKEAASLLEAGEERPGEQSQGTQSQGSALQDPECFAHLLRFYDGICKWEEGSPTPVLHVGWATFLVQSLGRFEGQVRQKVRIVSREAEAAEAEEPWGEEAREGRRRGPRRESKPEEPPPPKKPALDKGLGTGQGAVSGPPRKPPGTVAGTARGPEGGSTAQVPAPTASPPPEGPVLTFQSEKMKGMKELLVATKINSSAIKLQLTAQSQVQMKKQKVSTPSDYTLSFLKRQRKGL
In words: biochemical.
Conditions: not given
In the case of `COc1nc(N(C)[C@H]2C[C@@H](NCc3ccc(-c4cc(OC)c(Oc5ccccc5)nn4)cc3)C[C@H]2O)c2cc(CC(F)(F)F)sc2n1` [Example 114, (1R,2S,4R)-4-({[4-(5-methoxy-6-phenoxypyridazin-3-yl)phenyl]methyl}amino)-2-{[2-methoxy-6-(2,2,2-trifluoroethy)thieno[2,3-d]pyrimidin-4-yl](methyl)amino}cyclopentan-1-ol hydrochloride], the midpoint of inhibition, the IC50, lay at 1.5 nM.
Consider `COc1nc(N(C)[C@H]2C[C@@H](NCc3ccc(-c4cc(OC)c(Cl)nn4)cc3)C[C@H]2O)c2cc(CC(F)(F)F)sc2n1` [Example 90, (1R,2S,4R)-4-({[4-(6-chloro-5methoxypyridazin-3-yl)phenyl]methyl}amino)-2-{[2-methoxy-6-(2,2,2-trifluoroethyl)thieno[2,3-d]pyrimidin-4-yl](methyl)amino}cyclopentan1-ol hydrochloride], for which the IC50 – broadly, the concentration that gives 50% inhibition – was 1.2 nM.

Staying with this assay, now noted: IC50, binding inhibitory activity between menin and MLL, AlphaLISA; 1 nM menin, 10 nM biotinylated MLL1 peptide.
In the case of `COc1nc(N(C)[C@H]2C[C@@H](NCc3ccc(-c4cnc(N(C)C)c(OC)c4)cc3)C[C@H]2O)c2cc(CC(F)(F)F)sc2n1` [Example 117, (1R,2S,4R)-4-[({4-[6-(dimethylamino)-5-methoxypyridin-3-yl]phenyl}methyl)amino]-2-{[2-methoxy-6-(2,2,2-trifluoroethyl)thieno[2,3-d]pyrimidin-4-yl](methyl)amino}cyclopentan-1-ol hydrochloride], the IC50 amounted to 1.4 nM.
In turn, `CNc1ncc(-c2ccc(CN[C@H]3C[C@@H](O)[C@@H](N(C)c4ncnc5sc(CC(F)(F)F)cc45)C3)cc2)cc1OC` [Example 92, (1R,2S,4R)-4-[({4-[5-methoxy-6-(methylamino)pyridin-3-yl]phenyl}methyl)amino]-2-{methyl[6-(2,2,2-trifluoroethyl)thieno[2,3-d]pyrimidin-4-yl]amino}cyclopentan-1-ol hydrochloride] returned a half-maximal inhibitory concentration (IC50) of 1.5 nM.
On to `CNc1nc(N(C)[C@H]2C[C@@H](NCc3ccc(-c4cncc5c4ccn5S(C)(=O)=O)cc3)C[C@H]2O)c2cc(CC(F)(F)F)sc2n1` [Example 64, (1R,2S,4R)-4[({4-[1-(methanesulfonyl)-1H-pyrrolo[2,3-c]pyridin-4yl]phenyl}methyl)amino]-2-{methyl[2-(methylamino)-6-(2,2,2trifluoroethyl)thieno[2,3-d]pyrimidin-4-yl]amino}cyclopentan-1-ol hydrochloride], for which the concentration for half-maximal inhibition (IC50) came to 2.2 nM.
Still for that read-out and setting: the figure for `COc1cc(-c2ccc(CN[C@H]3C[C@@H](O)[C@@H](N(C)c4ncncc4Oc4ccc(F)cc4C(=O)N(C(C)C)C(C)C)C3)cc2)nnc1OC` [Example 89, 2-[(4-{[(1S,2R,4R)-4({[4-(5,6-dimethoxypyridazin-3-yl)phenyl]methyl}amino)-2-hydroxycyclopentyl](methyl)amino}pyrimidin-5-yl)oxy]-5-fluoro-N,N-di(propan-2-yl)benzamide hydrochloride] is 5.6 nM; for `CN(c1ncnc2sc(CC(F)(F)F)cc12)[C@H]1C[C@@H](NCc2ccc(-c3cncc4ccccc34)cc2)C[C@H]1O` [Example 83, (1R,2S,4R)-4-({[4-(isoquinolin-4-yl)phenyl]methyl}amino)-2-{methyl[6-(2,2,2-trifluoroethyl)thieno[2,3-d]pyrimidin-4-yl]amino}cyclopentan-1-ol hydrochloride] it is 4.9 nM.
`COc1cc(-c2ccc(CN[C@H]3C[C@@H](O)[C@@H](N(C)c4ncnc5sc(CC(F)(F)F)cc45)C3)c(F)c2)cnc1OC` [Example 76, (1R,2S,4R)-4-({[4-(5,6-dimethoxypyridin-3-yl)-2-fluorophenyl]methyl}amino)-2-{methyl[6-(2,2,2-trifluoroethyl)thieno[2,3-d]pyrimidin-4-yl]amino}cyclopentan-1-ol hydrochloride] gave a half-maximal inhibitory concentration (IC50) of 8.6 nM.
`COc1cc(-c2ccc(CN[C@H]3C[C@@H](O)[C@@H](N(C)c4ncnc5sc(CC(F)(F)F)cc45)C3)cc2F)cnc1F` [Example 74, (1R,2S,4R)-4-({[3-fluoro-4-(6-fluoro-5-methoxypyridin-3-yl)phenyl]methyl}amino)-2-{methyl[6-(2,2,2-trifluoroethyl)thieno[2,3-d]pyrimidin-4-yl]amino}cyclopentan-1-ol hydrochloride] yielded a half-maximal inhibitory concentration (IC50) of 6.5 nM.
Turning to `CNc1nc(N(C)[C@H]2C[C@@H](NCc3ccc(-c4cnc(OC)c(OC)c4)cc3)C[C@H]2O)c2cc(CC(F)(F)F)sc2n1` [Example 73, (1R,2S,4R)-4-({[4-(5,6-dimethoxypyridin-3-yl)phenyl]methyl}amino)-2-{methyl[2-(methylamino)-6-(2,2,2-trifluoroethyl)thieno[2,3-d]pyrimidin-4-yl]amino}cyclopentan-1-ol hydrochloride], the concentration for half-maximal inhibition (IC50) stood at 6.5 nM.
`COc1cc(-c2cnc(OC)c(OC)c2)ccc1CN[C@H]1C[C@@H](O)[C@@H](N(C)c2ncnc3sc(CC(F)(F)F)cc23)C1` [Example 77, (1R,2S,4R)-4-({[4-(5,6-dimethoxypyridin-3-yl)-2-methoxyphenyl]methyl}amino)-2-{methyl[6-(2,2,2-trifluoroethyl)thieno[2,3-d]pyrimidin-4-yl]amino}cyclopentan-1-ol hydrochloride]: the IC50 was determined as 10.4 nM.

Staying with this assay, now noted: cell free IC50 (nM), 1 nM menin, 10 nM biotinylated MLL1 peptide, AlphaLISA.
Take `COc1cncc(-c2ccc(CN[C@H]3C[C@@H](O)C[C@@H](Nc4ncnc5sc(CC(F)(F)F)cc45)C3)cc2)c1` (single isomer, unassigned) [Example 15A, Hydrochloride]: the midpoint of inhibition, the IC50, lay at 21.6 nM.
For `Cc1ncc(-c2ccc(CN[C@H]3CC[C@@H](N(C)c4ncnc5sc(CC(F)(F)F)cc45)C3)cc2)cc1OC(F)F` [Example 58, (1R,3S)-N^3-({4-[5-(difluoromethoxy)-6-methylpyridin-3-yl]phenyl}methyl)-N^1-methyl-N^1-[6-(2,2,2-trifluoroethyl)thieno[2,3-d]pyrimidin-4-yl]cyclopentane-1,3-diamine hydrochloride], the IC50 is 15.2 nM.
As to `CN(c1ncnc2sc(CC(F)(F)F)cc12)[C@@H]1CC[C@H](NCc2ccc(OCCO)c(F)c2)C1` [Example 31, 2-[2-fluoro-4-({[(1S,3R)-3-{methyl[6-(2,2,2-trifluoroethyl)thieno[2,3-d]pyrimidin-4-yl]amino}cyclopentyl]amino}methyl)phenoxy]ethan-1-ol hydrochloride], the IC50 turned out to be 46.4 nM.
On the same count and under the same terms, to `O=C(NC1COC1)c1ccc(CN[C@H]2CCC[C@@H](Nc3ncnc4sc(CC(F)(F)F)cc34)C2)cc1` [Example 10, N-(oxetan-3-yl)-4-({[(1S,3R)-3-{[6-(2,2,2-trifluoroethyl)thieno[2,3-d]pyrimidin-4-yl]amino}cyclohexyl]amino}methyl)benzamide Hydrochloride] belongs 199 nM.
Compound `COc1cncc(Nc2ccc(CN[C@H]3CC[C@@H](N(C)c4ncnc5sc(CC(F)(F)F)cc45)C3)cc2)c1` [Example 8, (1R,3S)—N^3-({4-[(5-methoxypyridin-3-yl)amino]phenyl}methyl)-N^1-methyl-N^1-[6-(2,2,2-trifluoroethyl)thieno[2,3-d]pyrimidin-4-yl]cyclopentane-1,3-diamine Hydrochloride] came in with an IC50 of 8.8 nM.
As for `COc1cncc(-c2ccc(CN[C@H]3C[C@@H](Nc4ncnc5sc(CC(F)(F)F)cc45)C[C@@H](C(=O)N(C)C)C3)cc2)c1` (single isomer, unassigned) [Example 17A, Hydrochloride], 2260 nM corresponded to half-maximal inhibition (IC50).
Still for that read-out and setting: the figure for `COCc1cc2c(N(C)[C@@H]3CC[C@H](NCc4ccc(-c5cncc(OC)c5)cc4)C3)ncnc2s1` [Example 47, (1R,3S)-N^1-[6-(methoxymethyl)thieno[2,3-d]pyrimidin-4-yl]-N^3-{[4-(5-methoxypyridin-3-yl)phenyl]methyl}-N^1-methylcyclopentane-1,3-diamine hydrochloride] is 97.2 nM; for `CCN(c1ncnc2sc(CC(F)(F)F)cc12)[C@@H]1CC[C@H](NCc2ccc(-c3cccnc3)cc2)C1` [Example 43, (1R,3S)-N^1-ethyl-N^3-{[4-(pyridin-3-yl)phenyl]methyl}-N^1-[6-(2,2,2 trifluoroethyl)thieno[2,3-d]pyrimidin-4-yl]cyclopentane-1,3-diamine hydrochloride] it is 76.2 nM.
`CN(c1ncnc2sc(CC(F)(F)F)cc12)[C@@H]1CC[C@H](NCc2ccc(S(=O)(=O)c3ccccc3)cc2)C1` [Example 53, (1R,3S)N^3-{[4-(benzenesulfonyl)phenyl]methyl}N^1-methyl-N^1-[6-(2,2,2-trifluoroethyl)thieno[2,3-d]pyrimidin-4-yl]cyclopentane-1,3-diamine hydrochloride]: the IC50 was determined as 17.7 nM.
Consider `CN(c1ncnc2sc(CC(F)(F)F)cc12)[C@@H]1CC[C@H](NCc2ccc(Nc3cnn(C)c3)cc2)C1` [Example 12, (1R,3S)—N^1-methyl-N^3-({4-[(1-methyl-1H-pyrazol-4-yl)amino]phenyl}methyl)-N^1-[6-(2,2,2-trifluoroethyl)thieno[2,3-d]pyrimidin-4-yl]cyclopentane-1,3-diamine], for which the 50% inhibitory concentration (IC50) stood at 33.8 nM.
On the same count and under the same terms, to `CN(c1ncnc2sc(CC(F)(F)F)cc12)[C@@H]1CC[C@H](NCc2ccc(OCCN3CCOCC3)cc2)C1` [Example 30, (1R,3S)-N^1-methyl-N^3-({4-[2-(morpholin-4-yl)ethoxy]phenyl}methyl)-N^1-[6-(2,2,2-trifluoroethyl)thieno[2,3-d]pyrimidin-4-yl]cyclopentane-1,3-diamine hydrochloride] belongs 44.6 nM.
